Data from patent US9738634B2, “Heterocyclic amide compound and herbicide” (SYNGENTA PARTICIPATIONS AG, priority 2013, dated 2017).

What was measured:
Type in all cases: in vivo
Settings in all cases: treatment dosage 320 g/ha
rapeseed [1] = experiment: Test Example 3: soil treatment, effect on crop; g: rapeseed
Method in brief: (§1)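 Crop and weed responses were judged three weeks after a uniform surface spray of the water-diluted emulsion at the given g/ha rate. Seeds sat beneath about 1.5 cm of sterilized diluvial soil, and boxes stood in a greenhouse at 25 to 30° C.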

wild oat [2] = experiment: Test Example 4: weedkilling efficacy by foliar treatment; G: wild oat
Method in brief: (§2)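 Seeds are spot-sown into sterilized diluvial soil and covered with about 1.5 cm of soil. After 14 days' greenhouse growth at 25 to 30° C, plants are sprayed on stems and leaves with diluted emulsion at the stated g/ha rate, then scored at 3 weeks.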

green foxtail [3] = experiment: Test Example 3: weedkilling efficacy through soil treatment; E: green foxtail
Method in brief: as §1

wheat [4] = experiment: Test Example 4: foliar treatment, effect on crop; e: wheat
Method in brief: as §2

common wind-grass [5] = experiment: Test Example 4: weedkilling efficacy by foliar treatment; J: common wind-grass
Method in brief: as §2

corn [6] = experiment: Test Example 3: soil treatment, effect on crop; c: corn
Method in brief: as §1

green foxtail [7] = experiment: Test Example 4: weedkilling efficacy by foliar treatment; E: green foxtail
Method in brief: as §2

oval-leafed pondweed [8] = experiment: Test Example 2: weedkilling efficacy, growth period weed treatment in the submerged state; C: oval-leafed pondweed
Method in brief: (§3)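 Seedlings at 1-2 leaves in 4 cm-deep submerged alluvial soil received emulsion formulations on the water surface, dosed per hectare; effects were judged 3 weeks on.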

black-grass [9] = experiment: Test Example 3: weedkilling efficacy through soil treatment; H: black-grass
Method in brief: as §1

redroot pigweed [10] = experiment: Test Example 3: weedkilling efficacy through soil treatment; L: redroot pigweed
Method in brief: as §1

corn [11] = experiment: Test Example 4: foliar treatment, effect on crop; c: corn
Method in brief: as §2

Indian mallow [12] = experiment: Test Example 3: weedkilling efficacy through soil treatment; K: Indian mallow
Method in brief: as §1

catchweed [13] = experiment: Test Example 3: weedkilling efficacy through soil treatment; O: catchweed
Method in brief: as §1

chickweed [14] = experiment: Test Example 4: weedkilling efficacy by foliar treatment; N: chickweed
Method in brief: as §2

soybean [15] = experiment: Test Example 3: soil treatment, effect on crop; d: soybean
Method in brief: as §1

Italian ryegrass [16] = experiment: Test Example 3: weedkilling efficacy through soil treatment; I: Italian ryegrass
Method in brief: as §1

wheat [17] = experiment: Test Example 3: soil treatment, effect on crop; e: wheat
Method in brief: as §1

redroot pigweed [18] = experiment: Test Example 4: weedkilling efficacy by foliar treatment; L: redroot pigweed
Method in brief: as §2

beet [19] = experiment: Test Example 4: foliar treatment, effect on crop; f: beet
Method in brief: as §2

transplanted rice = experiment: Test Example 1: preemergent weed treatment in the submerged state, effect on crop; a: transplanted rice
Method in brief: (§4)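 Submerged pre-emergence treatment, water-surface application of compound emulsion at g/ha dosages; 4 cm flooded alluvial soil, weeds sown and 2.5-leaf rice transplanted same day. Rated after 3 weeks, greenhouse.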

Italian ryegrass [20] = experiment: Test Example 4: weedkilling efficacy by foliar treatment; I: Italian ryegrass
Method in brief: as §2

black-grass [21] = experiment: Test Example 4: weedkilling efficacy by foliar treatment; H: black-grass
Method in brief: as §2

barnyard grass [22] = experiment: Test Example 1: weedkilling efficacy, preemergent weed treatment in the submerged state; A: barnyard grass
Method in brief: as §4

oval-leafed pondweed [23] = experiment: Test Example 1: weedkilling efficacy, preemergent weed treatment in the submerged state; C: oval-leafed pondweed
Method in brief: as §4

chickweed [24] = experiment: Test Example 3: weedkilling efficacy through soil treatment; N: chickweed
Method in brief: as §1

wild oat [25] = experiment: Test Example 3: weedkilling efficacy through soil treatment; G: wild oat
Method in brief: as §1

crabgrass [26] = experiment: Test Example 3: weedkilling efficacy through soil treatment; D: crabgrass
Method in brief: as §1

rapeseed [27] = experiment: Test Example 4: foliar treatment, effect on crop; g: rapeseed
Method in brief: as §2

fig-leafed goosefoot = experiment: Test Example 3: weedkilling efficacy through soil treatment; M: fig-leafed goosefoot
Method in brief: as §1

bulrush [28] = experiment: Test Example 2: weedkilling efficacy, growth period weed treatment in the submerged state; B: bulrush
Method in brief: as §3

soybean [29] = experiment: Test Example 4: foliar treatment, effect on crop; d: soybean
Method in brief: as §2

bulrush [30] = experiment: Test Example 1: weedkilling efficacy, preemergent weed treatment in the submerged state; B: bulrush
Method in brief: as §4

barnyard grass [31] = experiment: Test Example 4: weedkilling efficacy by foliar treatment; F: barnyard grass
Method in brief: as §2

catchweed [32] = experiment: Test Example 4: weedkilling efficacy by foliar treatment; O: catchweed
Method in brief: as §2

common wind-grass [33] = experiment: Test Example 3: weedkilling efficacy through soil treatment; J: common wind-grass
Method in brief: as §1

Indian mallow [34] = experiment: Test Example 4: weedkilling efficacy by foliar treatment; K: Indian mallow
Method in brief: as §2

birds-eye speedwell [35] = experiment: Test Example 4: weedkilling efficacy by foliar treatment; p: birds-eye speedwell
Method in brief: as §2

directly sown rice [36] = experiment: Test Example 4: foliar treatment, effect on crop; b: directly sown rice
Method in brief: as §2

beet [37] = experiment: Test Example 3: soil treatment, effect on crop; f: beet
Method in brief: as §1

barnyard grass [38] = experiment: Test Example 3: weedkilling efficacy through soil treatment; F: barnyard grass
Method in brief: as §1

crabgrass [39] = experiment: Test Example 4: weedkilling efficacy by foliar treatment; D: crabgrass
Method in brief: as §2

birds-eye speedwell [40] = experiment: Test Example 3: weedkilling efficacy through soil treatment; p: birds-eye speedwell
Method in brief: as §1

directly sown rice [41] = experiment: Test Example 3: soil treatment, effect on crop; b: directly sown rice
Method in brief: as §1

barnyard grass [42] = experiment: Test Example 2: weedkilling efficacy, growth period weed treatment in the submerged state; A: barnyard grass
Method in brief: as §3

With COc1cc(Cl)cc(NC(=O)C(C)(C)N2COC(C)=C(c3ccccc3)C2=O)n1 [B-2-46] the “g (rapeseed) effect on crop grade” value (rapeseed [1]) was 4 (weed kill ratio 70% or more, less than 90%), the “G (wild oat) weedkilling efficacy grade” value (wild oat [2]) was 3 (weed kill ratio 40% or more, less than 70%) and the “E (green foxtail) weedkilling efficacy grade” value (green foxtail [3]) was 5 (weed kill ratio 90% or more, (practically complete withering)). For the same compound, the “e (wheat) effect on crop grade” value (wheat [4]) was 0 (weed kill ratio 5% or less (practically no effect)), the “J (common wind-grass) weedkilling efficacy grade” value (common wind-grass [5]) was 5 (weed kill ratio 90% or more, (practically complete withering)) and the “c (corn) effect on crop grade” value (corn [6]) was 1 (weed kill ratio 5% or more, less than 20%). For the same compound, the “E (green foxtail) weedkilling efficacy grade” value (green foxtail [7]) was 5 (weed kill ratio 90% or more, (practically complete withering)), the “C (oval-leafed pondweed) weedkilling efficacy grade” value (oval-leafed pondweed [8]) was 5 (weed kill ratio 90% or more, (practically complete withering)) and the “H (black-grass) weedkilling efficacy grade” value (black-grass [9]) was 5 (weed kill ratio 90% or more, (practically complete withering)). The “L (redroot pigweed) weedkilling efficacy grade” value (redroot pigweed [10]) was 4 (weed kill ratio 70% or more, less than 90%), the “c (corn) effect on crop grade” value (corn [11]) was 1 (weed kill ratio 5% or more, less than 20%) and the “K (Indian mallow) weedkilling efficacy grade” value (Indian mallow [12]) was 3 (weed kill ratio 40% or more, less than 70%). The “O (catchweed) weedkilling efficacy grade” value (catchweed [13]) was 4 (weed kill ratio 70% or more, less than 90%), the “N (chickweed) weedkilling efficacy grade” value (chickweed [14]) was 2 (weed kill ratio 20% or more, less than 40%) and the “d (soybean) effect on crop grade” value (soybean [15]) was 0 (weed kill ratio 5% or less (practically no effect)). The “I (Italian ryegrass) weedkilling efficacy grade” value (Italian ryegrass [16]) was 5 (weed kill ratio 90% or more, (practically complete withering)), the “e (wheat) effect on crop grade” value (wheat [17]) was 0 (weed kill ratio 5% or less (practically no effect)) and the “L (redroot pigweed) weedkilling efficacy grade” value (redroot pigweed [18]) was 0 (weed kill ratio 5% or less (practically no effect)). For the same compound, the “f (beet) effect on crop grade” value (beet [19]) was 4 (weed kill ratio 70% or more, less than 90%), the “a (transplanted rice) effect on crop grade” value (transplanted rice) was 0 (weed kill ratio 5% or less (practically no effect)) and the “I (Italian ryegrass) weedkilling efficacy grade” value (Italian ryegrass [20]) was 4 (weed kill ratio 70% or more, less than 90%). For the same compound, the “H (black-grass) weedkilling efficacy grade” value (black-grass [21]) was 4 (weed kill ratio 70% or more, less than 90%), the “A (barnyard grass) weedkilling efficacy grade” value (barnyard grass [22]) was 5 (weed kill ratio 90% or more, (practically complete withering)) and the “C (oval-leafed pondweed) weedkilling efficacy grade” value (oval-leafed pondweed [23]) was 5 (weed kill ratio 90% or more, (practically complete withering)). The “N (chickweed) weedkilling efficacy grade” value (chickweed [24]) was 4 (weed kill ratio 70% or more, less than 90%), the “G (wild oat) weedkilling efficacy grade” value (wild oat [25]) was 3 (weed kill ratio 40% or more, less than 70%) and the “D (crabgrass) weedkilling efficacy grade” value (crabgrass [26]) was 5 (weed kill ratio 90% or more, (practically complete withering)). For the same compound, the “g (rapeseed) effect on crop grade” value (rapeseed [27]) was 4 (weed kill ratio 70% or more, less than 90%), the “M (fig-leafed goosefoot) weedkilling efficacy grade” value (fig-leafed goosefoot) was 4 (weed kill ratio 70% or more, less than 90%) and the “B (bulrush) weedkilling efficacy grade” value (bulrush [28]) was 5 (weed kill ratio 90% or more, (practically complete withering)). The “d (soybean) effect on crop grade” value (soybean [29]) was 0 (weed kill ratio 5% or less (practically no effect)), the “B (bulrush) weedkilling efficacy grade” value (bulrush [30]) was 5 (weed kill ratio 90% or more, (practically complete withering)) and the “F (barnyard grass) weedkilling efficacy grade” value (barnyard grass [31]) was 4 (weed kill ratio 70% or more, less than 90%). The “O (catchweed) weedkilling efficacy grade” value (catchweed [32]) was 4 (weed kill ratio 70% or more, less than 90%), the “J (common wind-grass) weedkilling efficacy grade” value (common wind-grass [33]) was 5 (weed kill ratio 90% or more, (practically complete withering)) and the “K (Indian mallow) weedkilling efficacy grade” value (Indian mallow [34]) was 3 (weed kill ratio 40% or more, less than 70%). The “P (birds-eye speedwell) weedkilling efficacy grade” value (birds-eye speedwell [35]) was 4 (weed kill ratio 70% or more, less than 90%), the “b (directly sown rice) effect on crop grade” value (directly sown rice [36]) was 3 (weed kill ratio 40% or more, less than 70%) and the “f (beet) effect on crop grade” value (beet [37]) was 4 (weed kill ratio 70% or more, less than 90%). The “F (barnyard grass) weedkilling efficacy grade” value (barnyard grass [38]) was 5 (weed kill ratio 90% or more, (practically complete withering)), the “D (crabgrass) weedkilling efficacy grade” value (crabgrass [39]) was 4 (weed kill ratio 70% or more, less than 90%) and the “P (birds-eye speedwell) weedkilling efficacy grade” value (birds-eye speedwell [40]) was 5 (weed kill ratio 90% or more, (practically complete withering)). The “b (directly sown rice) effect on crop grade” value (directly sown rice [41]) was 4 (weed kill ratio 70% or more, less than 90%) and the “A (barnyard grass) weedkilling efficacy grade” value (barnyard grass [42]) was 5 (weed kill ratio 90% or more, (practically complete withering)).
